Patent US9120744B2, “Plasminogen activator inhibitor-1 inhibitors and methods of use thereof to modulate lipid metabolism” (THE REGENTS OF THE UNIVERSITY OF MICHIGAN, priority 2007, dated 2015)
Structures can show the parent of a compound that is named as a salt. Where a SMILES comes first, the peptide text is derived from it. [ ]: non-standard residue; d: D form. The star is where a group is joined. Tyr(3-NO2) = N[C@@H](Cc1ccc(O)c([N+](=O)[O-])c1)C(=O)O; Boc = CC(C)(C)OC(=O)*

The compounds below were run against T1, recombinant active human PAI-1 (Homo sapiens (Human), UniProt P05121) (assay: β-trypsin screening assay for PAI-1 inhibitors). Conditions: 10 μM compound; hit = more than 3 standard deviations above control.
Format: biochemical
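For screening hit: restoration of β-trypsin activity in this document: fluorogenic readout with PAI-1 and β-trypsin at 10:1 molar ratio, untreated PAI-1 wells set as 100% PAI-1 activity and β-trypsin alone as 0%.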

T1 sequence (P05121 24-402): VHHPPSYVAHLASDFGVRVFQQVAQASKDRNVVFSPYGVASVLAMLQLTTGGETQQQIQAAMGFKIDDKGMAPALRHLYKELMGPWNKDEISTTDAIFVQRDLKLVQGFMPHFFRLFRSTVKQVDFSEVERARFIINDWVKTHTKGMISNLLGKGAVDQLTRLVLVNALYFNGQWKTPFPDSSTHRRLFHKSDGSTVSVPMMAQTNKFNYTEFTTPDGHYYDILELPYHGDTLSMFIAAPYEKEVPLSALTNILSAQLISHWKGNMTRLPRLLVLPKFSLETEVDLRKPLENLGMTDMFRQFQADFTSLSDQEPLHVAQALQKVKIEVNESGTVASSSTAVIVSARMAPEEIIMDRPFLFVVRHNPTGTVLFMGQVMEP

Structure (SMILES)	screening hit: restoration of β-trypsin activity
Oc1c(Cl)cc(Cl)c(Cl)c1Cc1c(O)c(Cl)cc(Cl)c1Cl [hexachlorophene]	demonstrate PAI-1 inhibitor activity
CCOC(=O)C1(O)Oc2cc(OC)cc(OC)c2C(=O)C1c1ccccc1 (stereo not drawn) [2-ETHOXYCARBONYL-2-HYDROXY-5,7-DIMETHOXYISOFLAVANONE]	demonstrate PAI-1 inhibitor activity
CC12CCC3C(CCC4(O)CC(O)CCC34/C=N/NC(N)=O)C1(O)CCC2C1=CC(=O)OC1 (stereo not drawn) [STROPHANTHIDIN SEMICARBAZIDE]	demonstrate PAI-1 inhibitor activity
O=c1cnn([C@H]2O[C@@H](CO)[C@H](O)[C@@H]2O)c(=O)[nH]1 (stereo in doubt) [6-AZAURIDINE]	demonstrate PAI-1 inhibitor activity
CCOP(=S)(OCC)SCSCC [PHORATE]	demonstrate PAI-1 inhibitor activity
CCCCCCCCCOc1ccc2[nH]cc(CCN)c2c1 [5-Nonyloxytryptamine]	demonstrate PAI-1 inhibitor activity
NC(=O)OCC(COC(N)=O)c1ccccc1 [Felbamate]	demonstrate PAI-1 inhibitor activity
CC1=C(O)C(=O)C=C2C1=CC=C1[C@@]2(C)CC[C@@]2(C)[C@@H]3C[C@](C)(C(=O)O)CC[C@]3(C)CC[C@]12C [CELASTROL]	demonstrate PAI-1 inhibitor activity
O=C(O)c1cc(O)c(=O)c2c(O)c(O)ccc2c1 [7-DESHYDROXYPYROGALLIN-4-CARBOXYLIC ACID]	demonstrate PAI-1 inhibitor activity
CCN(CC)CCNC(=O)c1ccc(N)cc1 [PROCAINAMIDE HYDROCHLORIDE]	demonstrate PAI-1 inhibitor activity
O=c1c(O)c(-c2ccc(O)c(O)c2)oc2cc(O)ccc12 [NSC 407010]	demonstrate PAI-1 inhibitor activity
NCCc1cc(O)c(O)cc1O [OXIDOPAMINE HYDROCHLORIDE]	demonstrate PAI-1 inhibitor activity
CCN(CC)C(=O)N1CCN(C)CC1 [DIETHYLCARBAMAZINE CITRATE]	demonstrate PAI-1 inhibitor activity
O=C(Oc1cc(O)cc2c1C[C@@H](OC(=O)c1cc(O)c(O)c(O)c1)[C@@H](c1cc(O)c(O)c(O)c1)O2)c1cc(O)c(O)c(O)c1 [EPIGALLOCATECHIN 3,5-DIGALLATE]	demonstrate PAI-1 inhibitor activity
Oc1ccc2c(c1)OC[C@]1(O)Cc3cc(O)c(O)cc3[C@H]21 [BRAZILIN]	demonstrate PAI-1 inhibitor activity
C=C1/C(=C\C=C2/CCC[C@@]3(C)[C@@H]2CC[C@H]3[C@H](C)/C=C/[C@@H](O)C2CC2)C[C@@H](O)C[C@H]1O [CALCIPOTRIOL]	demonstrate PAI-1 inhibitor activity
CN(C)C(=S)SSC(=S)N(C)C [NSC 1771]	demonstrate PAI-1 inhibitor activity
C[C@]12CCC(=O)C=C1C=C[C@@H]1[C@@H]2CC[C@@]2(C)[C@H]1CC[C@@]21CCC(=O)O1 [CANRENONE]	demonstrate PAI-1 inhibitor activity

What follows are compounds tested against T1, recombinant active human PAI-1 (assay: Fluorometric IC50 plate assay (PAI-1 inhibition of uPA, Z-Gly-Gly-Arg-AMC)). Conditions: in vitro, PAI-1 1 nM, uPA 2.5 nM, pH 7.8, 10% DMSO; ND = not detected, e.g. no inhibition.
Format: biochemical

Structure (SMILES)	IC50
O=S(=O)(NNS(=O)(=O)c1ccc(O)cc1)c1ccc(O)cc1 [CDE-072]	104 µM
O=S(=O)(c1ccc(O)c(O)c1)N1CCCCN1S(=O)(=O)c1ccc(O)c(O)c1 [CDE-074]	1.71 µM
COc1cc(C(=O)OCCOC(=O)c2cc(OC)c(O)c(OC)c2)cc(OC)c1O [CDE-069]	562 µM
O=C(OCCOC(=O)c1ccc(O)cc1O)c1ccc(O)cc1O [CDE-051]	28.7 µM
COc1cc(C(=O)N2CCN(C(=O)c3cc(OC)c(O)c(OC)c3)CC2)cc(OC)c1O [CDE-065]	423 µM
CC(C)(COC(=O)c1cc(O)c(O)c(O)c1)COC(=O)c1cc(O)c(O)c(O)c1 [CDE-067]	48.3 µM
CC(C)(C)OC(=O)N[C@@H](Cc1ccc(O)c([N+](=O)[O-])c1)C(=O)N[C@@H](Cc1ccc(O)c([N+](=O)[O-])c1)C(=O)O [CDE-035] (Boc-[Tyr(3-NO2)]-[Tyr(3-NO2)]-OH)	146 µM
O=C(NCCNC(=O)c1ccc(O)c([N+](=O)[O-])c1)c1ccc(O)c([N+](=O)[O-])c1 [CDE-060]	236 µM
O=C(OCCOC(=O)c1cccc(OC(=O)c2cc(O)c(O)c(O)c2)c1)c1cccc(OC(=O)c2cc(O)c(O)c(O)c2)c1 [CDE-041]	47.9 µM
O=C(O[C@H]1CC[C@@H](OC(=O)c2cc(O)c(O)c(O)c2)CC1)c1cc(O)c(O)c(O)c1 [CDE-061]	0.05 µM

What follows are compounds tested against T1, recombinant active human PAI-1 (assay: pH dependence of PAI-1 inhibition, fluorogenic uPA (or tPA) assay). Conditions: pH 6.5 to 8.5.
Format: biochemical

Structure (SMILES)	effect of pH on PAI-1 inhibition (in words)
Oc1c(Cl)cc(Cl)c(Cl)c1Cc1c(O)c(Cl)cc(Cl)c1Cl [hexachlorophene]	did not improve at pH 8.5 compared to pH 7.5
COc1ccc(S(=O)(=O)NCCNS(=O)(=O)c2ccc(OC)c(OC)c2)cc1OC [CDE-029]	increased with increasing pH
CCN(CCN(CC)S(=O)(=O)c1ccc(OC)c(OC)c1)S(=O)(=O)c1ccc(OC)c(OC)c1 [CDE-030]	increased with increasing pH

Same assay, conditions: pH 7.5 (FIG. 8); additional experiments

Structure (SMILES)	PAI-1 inhibitory efficacy (in words)
O=C(OC[C@H]1O[C@@H](OC(=O)c2cc(O)c(O)c(O)c2)[C@H](OC(=O)c2cc(O)c(O)c(O)c2)[C@@H](OC(=O)c2cc(O)c(O)c(O)c2)[C@H]1OC(=O)c1cc(O)c(O)c(O)c1)c1cc(O)c(O)c(O)c1 [CDE-004]	effective PAI-1 inhibitors
O=C(OC[C@H]1O[C@@H](OC(=O)c2cc(O)c(O)c(O)c2)[C@@H](OC(=O)c2cc(O)c(O)c(O)c2)[C@@H](OC(=O)c2cc(O)c(O)c(O)c2)[C@@H]1OC(=O)c1cc(O)c(O)c(O)c1)c1cc(O)c(O)c(O)c1 [CDE-002]	effective PAI-1 inhibitors
O=C(OC[C@H]1O[C@H](OC(=O)c2cc(OCc3ccccc3)c(OCc3ccccc3)c(OCc3ccccc3)c2)[C@H](OC(=O)c2cc(OCc3ccccc3)c(OCc3ccccc3)c(OCc3ccccc3)c2)[C@@H](OC(=O)c2cc(OCc3ccccc3)c(OCc3ccccc3)c(OCc3ccccc3)c2)[C@H]1OC(=O)c1cc(OCc2ccccc2)c(OCc2ccccc2)c(OCc2ccccc2)c1)c1cc(OCc2ccccc2)c(OCc2ccccc2)c(OCc2ccccc2)c1 [CDE-007]	not inhibitory
COc1ccc(S(=O)(=O)NCCNS(=O)(=O)c2ccc(OC)c(OC)c2)cc1OC [CDE-029]	effective inhibitors of PAI-1
O=C(OC[C@H]1O[C@@H](OC(=O)c2cc(OCc3ccccc3)c(OCc3ccccc3)c(OCc3ccccc3)c2)[C@H](OC(=O)c2cc(OCc3ccccc3)c(OCc3ccccc3)c(OCc3ccccc3)c2)[C@@H](OC(=O)c2cc(OCc3ccccc3)c(OCc3ccccc3)c(OCc3ccccc3)c2)[C@H]1OC(=O)c1cc(OCc2ccccc2)c(OCc2ccccc2)c(OCc2ccccc2)c1)c1cc(OCc2ccccc2)c(OCc2ccccc2)c(OCc2ccccc2)c1 [CDE-006]	not inhibitory
CCN(CCN(CC)S(=O)(=O)c1ccc(OC)c(OC)c1)S(=O)(=O)c1ccc(OC)c(OC)c1 [CDE-030]	effective inhibitors of PAI-1
O=C(OC[C@H]1OC(OC(=O)c2cc(O)c(O)c(O)c2)[C@H](OC(=O)c2cc(O)c(O)c(O)c2)[C@@H](OC(=O)c2cc(O)c(O)c(O)c2)[C@@H]1OC(=O)c1cc(O)c(O)c(O)c1)c1cc(O)c(O)c(O)c1 (stereo partly drawn) [CDE-001]	effective PAI-1 inhibitors
O=C(OC[C@H]1O[C@H](OC(=O)c2cc(O)c(O)c(O)c2)[C@H](OC(=O)c2cc(O)c(O)c(O)c2)[C@@H](OC(=O)c2cc(O)c(O)c(O)c2)[C@H]1OC(=O)c1cc(O)c(O)c(O)c1)c1cc(O)c(O)c(O)c1 [CDE-003]	effective PAI-1 inhibitors
